# Several values for one entry are separate records, joined by “and”; a condition that tells them apart may be missing. Identical values can stand only once.
# Columns and labels:
# [1] = Concentration of pesticides and metabolites in plasma of rats after 90-day gavage exposure to a pesticide mixture; format: in vivo, rat; conditions: for Slope (linear fit), concentration in plasma versus level of exposure: exposure expressed as mg/kg per day, concentration as ng/mL, detected values only
# Method: (§1) Eight rats were randomly assigned to each of the experimental groups. A low-calorie water gel that contained the pesticides was administered via gavage to these rats three times per week for 90 days. The doses of the pesticides mixture used for exposure were 4, 10, 20, 40, 100, 200, and 400 µg/kg of body weight. The exposure range was set as follows: The lowest dose was the lowest level allowing the detection of pesticides in hair after a 90-day exposure, based on preliminary experiments not detailed here. Testing lower levels would not have been relevant because some compounds would not be detected anymore (analytical limitation). In addition, for some other compounds, no differences were detected in the current experiment between the lowest level of exposure and the background exposure of the controls. The highest dose was set according to toxicity of compounds, which corresponded to 1/20 of the lowest LD50 (carbofuran). The animals were weighed before each administration in order to adapt the amount of pesticide-containing mixture to the animals’ weight.
# (§2) The animals were shaved before the experiment began to ensure that the hair collected at the end of the study accurately reflected the 90-day period of exposure. White and black hairs were collected separately, placed in aluminum foil, and stored at −20 °C until analysis. Blood was collected in EDTA tube from the tail vein, 3 h after oral administration on Day 90. Each sampling (500–750 µL) was immediately centrifuged at 5000×g for 3 min at room temperature, and plasma was separated and stored at −80 °C before analysis. For urine collection, the rats were placed in individual metabolic cages (Type 304 stainless steel, Techniplast, Zwaag, Netherlands) immediately after gavage for 24 h (from Day 88 to Day 89). The urine was collected in refrigerated tubes over a 24-h period and was weighed before storage at −20 °C.
# (§3) Depending on the compounds, only parent pesticides, only metabolites, or both parent and metabolites were analyzed in the biological matrices. The chemicals were analyzed as previously described (Chata et al. [2016]; Hardy et al. [2015]). Despite the different nature of the biological matrices analyzed (liquid vs. solid), method protocols were developed to ensure similarity so they could be reliably compared to the information obtained from each matrix, thereby ensuring that differences were not likely attributable to analytical bias. […] Because analytical background noise was absent from the chromatograms because tandem mass spectrometry was used, the approaches based on background noise for determining the limit of detection (LOD) were not applicable. The LOD was therefore determined as the lowest concentration that was detected in the samples analyzed during this study. Selectivity was ensured by analyte retention time and by the quantification transition to confirmation transition ratio that had to be lower than the 20% difference from the ratio obtained with standard compounds. The LOD ranged from 0.02 pg/mg for β-endosulfan to 2.7 pg/mg for dichlorodiphenyltrichloroethane (p,p′-DDT) in hair, from 0.2 pg/mL for trifluralin to 13.6 ng/mL for 2-isopropoxyphenol (2-IPP) in urine, and from 2.4 pg/mL for β-endosulfan to 679 pg/mL for p,p′-DDT in plasma. Because the analysis of parent pesticides and metabolites was conducted on the same hair sample, the addition of parent organophosphate isotope-labeled analog standards was not possible because their degradation into non-labeled dialkyl phosphate (DAP) during the analytical procedure would have hindered the analysis of DAP due to exposure. In hair, only organophosphate metabolites (not parents) were therefore quantified, and only qualitative results were obtained for parents.
# (§4) The association between the level of exposure and the analyte concentration in the matrix (i.e., hair, urine, and plasma) was assessed by the Pearson product-moment correlation coefficient (R Pearson). […]
# [2] = ref Timchalk et al. [2007], cited from earlier work
# [3] = Concentration of pesticides and metabolites in 24-h urine of rats after 90-day gavage exposure to a pesticide mixture; format: in vivo, rat; conditions: for Slope (linear fit), concentration in urine versus level of exposure: exposure expressed as mg/kg per day, concentration as ng/mL, detected values only; for Concentration range in urine (detection): ND = not detected, whatever the level of exposure
# Method: as §1, §2, §3, §4
# [4] = Influence of hair pigmentation: concentration in white hair versus pigmented hair; format: in vivo, rat; conditions: slope close to 1 = poor influence of pigmentation
# Method: as §2
# The influence of hair pigmentation on pesticide incorporation was assessed by comparing the concentration detected in white hair versus pigmented hair which were collected and analyzed separately from each animal. […] For the majority of the chemicals tested during the current study, pigmentation seemed to have a very limited effect on the concentration in hair, and only few compounds seemed to be pigmentation sensitive.
# [5] = Concentration of pesticides and metabolites in hair of rats after 90-day gavage exposure to a pesticide mixture; format: in vivo, rat; conditions: for Slope (linear fit), concentration in hair versus level of exposure: exposure expressed as mg/kg per day, concentration as pg/mg, detected values only
# Method: as §1, §2, §3, §4
SMILES,"Slope (linear fit), concentration in plasma versus level of exposure ([1]; plasma)","Slope (linear fit), concentration in urine versus level of exposure [3]","Slope, concentration in white hair versus pigmented hair [4]","Slope (linear fit), concentration in hair versus level of exposure [5]",other results
CCOP(=S)(OCC)Oc1nc(Cl)c(Cl)cc1Cl [Chlorpyrifos],1.24,–,–,–,Mean concentration in plasma ([1]; control group): 0.15 ± 0.01 ng/mL; Mean concentration in plasma ([1]; most exposed group): 0.41 ± 0.09 ng/mL; Metabolization of the parent compound [2]: 0.2 h
"CCOP(=O)(O)OCC [DEP, diethyl phosphate]",–,2.0 E + 06,0.892,4.54,Half-life for α-phase in rat blood ([2]; after oral dosing of chlorpyrifos): 12 min
N#Cc1nn(-c2c(Cl)cc(C(F)(F)F)cc2Cl)c(N)c1S(=O)(=O)C(F)(F)F [Fipronil sulfone],976,10 650,1.114,772,–
CC(C)Oc1cc(-n2nc(C(C)(C)C)oc2=O)c(Cl)cc1Cl [Oxadiazon],38.5,–,0.860,11.45,Concentration range in urine (detection) [3]: not detected
Oc1c(Cl)c(Cl)c(Cl)c(Cl)c1Cl [Pentachlorophenol],2039,82 841,0.705,169.0,–
CCCC1COC(Cn2cncn2)(c2ccc(Cl)cc2Cl)O1 (stereo not shown) [Propiconazole],–,–,0.825,6.47,"Concentration range in urine (detection) [3]: not detected; Concentration range in plasma (detection) ([1]; ND = not detected, whatever the level of exposure): not detected"
"Oc1nc(Cl)c(Cl)cc1Cl [TCPy, 3,5,6-trichloro-2-pyridinol]",109,2.5 E + 06,0.435,85.6,–
CCCN(CCC)c1c([N+](=O)[O-])cc(C(F)(F)F)cc1[N+](=O)[O-] [Trifluralin],1.57,4,0.688,1.107,"Slope (linear fit), concentration in hair versus level of exposure ([5]; listed as trifluralin): 1.11"
"Clc1ccc(C(c2ccc(Cl)cc2)C(Cl)Cl)cc1 [p,p′-DDD, p,p′-dichlorodiphenyldichloroethane]",13.1,–,0.673,24.0,Concentration range in urine (detection) [3]: not detected; Exposure level from which detected in plasma ([1]; plasma): 40 µg/kg; Exposure level from which detected in hair [5]: 40 µg/kg per day
"ClC(Cl)=C(c1ccc(Cl)cc1)c1ccc(Cl)cc1 [p,p′-DDE, p,p′-dichlorodiphenyldichloroethylene]",289,–,1.287,273.5,Exposure level from which detected in urine [3]: 200 µg/kg
"Clc1ccc(C(c2ccc(Cl)cc2)C(Cl)(Cl)Cl)cc1 [p,p′-DDT, dichlorodiphenyltrichloroethane]",175,–,0.876,184.7,Exposure level from which detected in urine [3]: 200 µg/kg; Exposure level from which detected in hair [5]: 20 µg/kg per day
"O=S1OC[C@@H]2[C@H](CO1)[C@]1(Cl)C(Cl)=C(Cl)[C@]2(Cl)C1(Cl)Cl (stereo partly drawn) [β-Endosulfan, β-endosulfan]",1.50,–,0.965,2.71,Concentration range in urine (detection) [3]: not detected
"Cl[C@H]1[C@H](Cl)[C@@H](Cl)[C@H](Cl)[C@@H](Cl)[C@@H]1Cl [β-HCH, β-hexachlorocyclohexane]",199,6 297,1.021,612 and 612.6,–
"Cl[C@H]1[C@H](Cl)[C@@H](Cl)[C@@H](Cl)[C@H](Cl)[C@H]1Cl [γ-HCH, γ-hexachlorocyclohexane]",47.2,5 715,0.969,119.8,"Concentration in urine, single point out of scale ([3]; dosage of 200 µg/kg, one animal, not presented in Fig. 1): 9 ng/mL"

# Source: PMC5515982, “Hair analysis for the biomonitoring of pesticide exposure: comparison with blood and urine in a rat model” (Archives of Toxicology, 2016)
